Experiment [1] has as its system HCT116 isogenic IDH1-R132C mutant cells. The experiment can be described thus: Cellular 2-HG assay using HCT116 mutant IDH1 cells (R132C), RapidFire mass spectrometry. As to conditions: Homo sapiens, read-out: HCT116 IDH1 R132C IC50 (Range). It is filed as cell-based. On the procedure:
(§1) Example 106—Cellular 2-HG assay using HCT116 mutant IDH1 cells
(§2) HCT116 isogenic IDH1-R132H and IDH1-R132C mutant cells were cultured in growth media (McCoy's 5 A, 10% fetal bovine serum, 1× antibiotic-antimycotic solution and 0.3 mg/mL G418) in 5% CO2 in an incubator at 37° C. To prepare the assay, cells were trypsinized and resuspended in assay media (McCoy's 5 A with no L-glutamine, 10% fetal bovine serum, 1× antibiotic-antimycotic solution and 0.3 mg/mL G418). An aliquot of 10,000 cells/100 μL was transferred to each well of a clear 96-well tissue culture plate. The cells were incubated in 5% CO2 at 37° C. in an incubator overnight to allow for proper cell attachment. An aliquot of 50 μL of compound containing assay media were then added to each well and the assay plate was kept in 5% CO2 at 37° C. in an incubator for 24 hours. The media was then removed from each well and 150 μL of a methanol/water mixture (80/20 v/v) was added to each well. The plates were kept at −80° C. freezer overnight to allow for complete cell lysis. An aliquot of 125 μL of extracted supernatant was analyzed by RapidFire high-throughout-mass spectrometry (Agilent) to determine the cellular 2-HG level. The IC50 of a given compound was calculated by fitting the dose response curve of cellular 2-HG inhibition at a given concentration with the four parameter logistic equation.

Experiment [2] has as its target IDH1-R132H recombinant protein (Homo sapiens (Human), UniProt O75874, R132H). Put plainly: IDH1-R132H enzymatic assay (inhibition of NADPH consumption, diaphorase/resazurin readout). The experiment is classed as biochemical. As to conditions: read-out: Enzyme IDH1 R132H IC50 (Range). The procedure, abridged:
(§3)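 Compound was preincubated 15 min at 25 °C with 30 nM IDH1-R132H or 10 nM IDH1-R132C in Tris pH 7.5 buffer with MgCl2, BSA and Triton X-100. Reaction with 2 mM α-ketoglutarate and 20 μM NADPH (solution concentrations) ran 45 min at 25 °C. Remaining NADPH was detected via diaphorase/resazurin fluorescence (ex 535/em 590 nm), and IC50 came from four-parameter fits.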
For orientation: Alamar Blue is a resazurin reagent that responds to reducing activity.

Experiment [3] deals with IDH1-R132C recombinant protein (Homo sapiens (Human), UniProt O75874, R132C). The experiment can be described thus: IDH1-R132C enzymatic assay (inhibition of NADPH consumption, diaphorase/resazurin readout). As to conditions: read-out: Enzyme IDH1 R132C IC50 (Range). It is filed as biochemical. A digest of the protocol: as §3
Experiment [4] concerns HCT116 isogenic IDH1-R132H mutant cells. The experiment can be described thus: Cellular 2-HG assay using HCT116 mutant IDH1 cells (R132H), RapidFire mass spectrometry. It is filed as cell-based. As to conditions: Homo sapiens, read-out: HCT116 IDH1 R132H IC50 (Range). The method, then: as §1, §2
Setting [5] is: HCT-116, cellular 2-HG level, HCT116 IDH1-R132C cells, 24 hours.
The mark [6] stands for this setting: HCT-116, cellular 2-HG level, HCT116 IDH1-R132H cells, 24 hours.

pIC50: −log10 of the molar value. Read-outs that look alike come from different tables or passages of the source.

IDH1-R132C recombinant protein, sequence (O75874 whole entry R132C): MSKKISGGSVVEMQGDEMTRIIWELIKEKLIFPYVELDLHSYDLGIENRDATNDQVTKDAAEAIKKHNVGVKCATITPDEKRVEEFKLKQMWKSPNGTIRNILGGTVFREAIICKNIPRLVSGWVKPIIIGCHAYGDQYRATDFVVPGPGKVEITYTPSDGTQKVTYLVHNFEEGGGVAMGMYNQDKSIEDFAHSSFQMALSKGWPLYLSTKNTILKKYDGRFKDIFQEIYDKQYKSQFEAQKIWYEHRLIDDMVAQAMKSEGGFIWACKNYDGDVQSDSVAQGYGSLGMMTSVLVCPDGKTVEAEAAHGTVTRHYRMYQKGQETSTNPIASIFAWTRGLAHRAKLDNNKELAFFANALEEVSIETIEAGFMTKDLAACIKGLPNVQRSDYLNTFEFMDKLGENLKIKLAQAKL
IDH1-R132H recombinant protein, sequence (O75874 whole entry R132H): as the sequence (O75874 whole entry R132C) above, with C132H counted along it

The pIC50 is −log10 of the IC50, conventionally taken in molar units. On to `COc1nc(N[C@@H](C)c2cc3cc(Cl)ccc3[nH]c2=O)ncc1C#N` [Compound I-36, (S)-2-((1-(6-Chloro-2-oxo-1,2-dihydroquinolin-3-yl)ethyl)amino)-4-methoxypyrimidine-5-carbonitrile], for which the pIC50 in experiment [1] (HCT-116, 24 h) was 6.00 to 7.00; in experiment [2], > 7.00; in experiment [3], 6.00 to 7.00; in experiment [4] (HCT-116, 24 h), > 7.00.

On to `C[C@H](Nc1nccc(N2CCOC2=O)n1)c1cc2cc(Cl)ccc2[nH]c1=O` [Compound I-44, (S)-3-(2-((1-(6-Chloro-2-oxo-1,2-dihydroquinolin-3-yl)ethyl)amino)pyrimidin-4-yl)oxazolidin-2-one], for which the pIC50 in experiment [1] (setting [5]) was 6.00 to 7.00; in experiment [2], > 7.00; in experiment [3], > 7.00; in experiment [4] (setting [6]), > 7.00.

In the case of `O=C1OCCN1c1ccnc(NCc2cc3cc(Cl)ccc3[nH]c2=O)n1` [Compound I-47], the negative-log IC50 (pIC50) in experiment [1] (setting [5]) was 5.00 to 6.00; in experiment [2], 6.00 to 7.00; in experiment [3] it was 6.00 to 7.00; in experiment [4] (setting [6]), 6.00 to 7.00.

Consider `Cc1cccn1-c1ccnc(N[C@@H](C)c2cc3cc(Cl)ccc3[nH]c2=O)n1` [Compound I-51, (S)-6-Chloro-3-(1-((4-(2-methyl-1H-pyrrol-1-yl)pyrimidin-2-yl)amino)ethyl) quinolin-2(1H)-one], for which the pIC50 is 6.00 to 7.00 in experiment [1] (setting [5]), > 7.00 in experiment [2], 6.00 to 7.00 in experiment [3] and 6.00 to 7.00 in experiment [4] (setting [6]).

Regarding `C[C@H](Nc1nccc(-n2ccnc2)n1)c1cc2cc(Cl)ccc2[nH]c1=O` [Compound I-54], the pIC50 in experiment [1] (setting [5]) is 5.00 to 6.00; in experiment [2], 6.00 to 7.00; in experiment [3] it was 5.00 to 6.00; in experiment [4] (setting [6]) it was 5.00 to 6.00.

On to `C[C@H](Nc1nccc(-n2cnc3c2CCC3)n1)c1cc2cc(Cl)ccc2[nH]c1=O` [Compound I-55], for which the pIC50 in experiment [1] (setting [5]), in experiment [2], in experiment [3] and in experiment [4] (setting [6]) was 6.00 to 7.00 each time.

On to `Cc1oncc1-c1ccnc(N[C@@H](C)c2cc3cc(Cl)ccc3[nH]c2=O)n1` [Compound I-58, (S)-6-Chloro-3-(1-((4-(5-methylisoxazol-4-yl)pyrimidin-2-yl)amino)ethyl)quinolin-2(1H)-one], for which the pIC50 was 5.00 to 6.00 in experiment [1] (setting [5]), > 7.00 in experiment [2], 5.00 to 6.00 in experiment [3] and 5.00 to 6.00 in experiment [4] (setting [6]).

Regarding `Cc1nnnn1-c1ccnc(N[C@@H](C)c2cc3cc(Cl)ccc3[nH]c2=O)n1` [Compound I-59, (S)-6-chloro-3-(1-((4-(5-methyl-1H-tetrazol-1-yl)pyrimidin-2-yl)amino)ethyl)quinolin-2(1H)-one], the pIC50 in experiment [1] (setting [5]) is 6.00 to 7.00; in experiment [2], > 7.00; in experiment [3], 6.00 to 7.00; in experiment [4] (setting [6]) it was 6.00 to 7.00.

For `C[C@H](Nc1nccc(-c2cncn2CC(F)(F)F)n1)c1cc2cc(Cl)ccc2[nH]c1=O` [Compound I-60, (S)-6-Chloro-3-(1-((4-(1-(2,2,2-trifluoroethyl)-1H-imidazol-5-yl)pyrimidin-2-yl)amino)ethyl)quinolin-2(1H)-one], the negative-log IC50 (pIC50) in experiment [1] (setting [5]) was 6.00 to 7.00; in experiment [2], > 7.00; in experiment [3], 6.00 to 7.00; in experiment [4] (setting [6]), > 7.00.

On to `C[C@H](Nc1nccc(-c2cncn2CC2CC2)n1)c1cc2cc(Cl)ccc2[nH]c1=O` [Compound I-61], for which the pIC50 is 6.00 to 7.00 in experiment [1] (setting [5]), > 7.00 in experiment [2], > 7.00 in experiment [3] and 6.00 to 7.00 in experiment [4] (setting [6]).

For `C[C@H](Nc1nccc(-c2cnc3ccccn23)n1)c1cc2cc(Cl)ccc2[nH]c1=O` [Compound I-63, (S)-6-chloro-3-(1-((4-(imidazo[1,2-a]pyridin-3-yl)pyrimidin-2-yl)amino)ethyl)quinolin-2(1H)-one], the pIC50 is 5.00 to 6.00 in experiment [1] (setting [5]), > 7.00 in experiment [2], > 7.00 in experiment [3] and 6.00 to 7.00 in experiment [4] (setting [6]).

As to `CC(C)n1cncc1-c1ccnc(N[C@@H](C)c2cc3cc(Cl)ccc3[nH]c2=O)n1` [Compound I-64, (S)-6-chloro-3-(1-((4-(1-isopropyl-1H-imidazol-5-yl)pyrimidin-2-yl)amino)ethyl) quinolin-2(1H)-one], the negative-log IC50 (pIC50) is 6.00 to 7.00 in experiment [1] (setting [5]), > 7.00 in experiment [2], 6.00 to 7.00 in experiment [3] and 6.00 to 7.00 in experiment [4] (setting [6]).

In the case of `C[C@H](Nc1nccc(-n2cccc2C(F)(F)F)n1)c1cc2cc(Cl)ccc2[nH]c1=O` [Compound I-65, (S)-6-Chloro-3-(1-((4-(2-(triflouromethyl)-1H-pyrrol-1-yl)pyrimidin-2-yl)amino)ethyl) quinolin-2(1H)-one], the negative-log IC50 (pIC50) is 5.00 to 6.00 in experiment [1] (setting [5]), 6.00 to 7.00 in experiment [2], 5.00 to 6.00 in experiment [3] and 6.00 to 7.00 in experiment [4] (setting [6]).

As to `C[C@H](Nc1nccc(-c2cnnn2C)n1)c1cc2cc(Cl)ccc2[nH]c1=O` [Compound I-66, (S)-6-chloro-3-(1-((4-(1-methyl-1H-1,2,3-triazol-5-yl)pyrimidin-2-yl)amino)ethyl)quinolin-2(1H)-one], the pIC50 was 6.00 to 7.00 in experiment [1] (setting [5]), 6.00 to 7.00 in experiment [2], 5.00 to 6.00 in experiment [3] and 6.00 to 7.00 in experiment [4] (setting [6]).

Consider `C[C@H](Nc1nccc(-c2cncn2Cc2ccccc2)n1)c1cc2cc(Cl)ccc2[nH]c1=O` [Compound I-68], for which the pIC50 in experiment [1] (setting [5]) was 6.00 to 7.00; in experiment [2], > 7.00; in experiment [3] it was > 7.00; in experiment [4] (setting [6]) it was > 7.00.

Consider `C[C@H](Nc1nccc(-c2cncn2C)n1)c1cc2cc(Cl)ccc2[nH]c1=O` [Compound I-71], for which the pIC50 in experiment [1] (setting [5]) is > 7.00; in experiment [2], > 7.00; in experiment [3], 6.00 to 7.00; in experiment [4] (setting [6]), > 7.00.

As for `CC(C)n1nccc1-c1ccnc(N[C@@H](C)c2cc3cc(Cl)ccc3[nH]c2=O)n1` [Compound I-75], the pIC50 in experiment [1] (setting [5]) was 5.00 to 6.00; in experiment [2], > 7.00; in experiment [3], 6.00 to 7.00; in experiment [4] (setting [6]) it was 6.00 to 7.00.

`CC(C)Cn1cncc1-c1ccnc(N[C@@H](C)c2cc3cc(Cl)ccc3[nH]c2=O)n1` [Compound I-85]: the pIC50 in experiment [1] (setting [5]), in experiment [2], in experiment [3] and in experiment [4] (setting [6]) was 6.00 to 7.00 throughout.

On to `C[C@H](Nc1nccc(-c2ccn[nH]2)n1)c1cc2cc(Cl)ccc2[nH]c1=O` [Compound I-87], for which the pIC50 in experiment [1] (setting [5]) is 5.00 to 6.00; in experiment [2], 6.00 to 7.00; in experiment [3], 5.00 to 6.00; in experiment [4] (setting [6]), 6.00 to 7.00.

As to `C[C@H](Nc1nccc(-c2cnsc2)n1)c1cc2cc(Cl)ccc2[nH]c1=O` [Compound I-88], the negative-log IC50 (pIC50) was 5.00 to 6.00 in experiment [1] (setting [5]), > 7.00 in experiment [2], 6.00 to 7.00 in experiment [3] and 6.00 to 7.00 in experiment [4] (setting [6]).

Regarding `Cc1ncccc1-c1ccnc(N[C@@H](C)c2cc3cc(Cl)ccc3[nH]c2=O)n1` [Compound I-90], the pIC50 in experiment [1] (setting [5]) is 5.00 to 6.00; in experiment [2] it was 6.00 to 7.00; in experiment [3], 5.00 to 6.00; in experiment [4] (setting [6]) it was 5.00 to 6.00.

With `C[C@H](Nc1nccc(-c2cncc3ccccc23)n1)c1cc2cc(Cl)ccc2[nH]c1=O` [Compound I-92], the pIC50 was 5.00 to 6.00 in experiment [1] (setting [5]), 6.00 to 7.00 in experiment [2], 6.00 to 7.00 in experiment [3] and 6.00 to 7.00 in experiment [4] (setting [6]).

As to `C[C@H](Nc1nccc(-c2cccnc2)n1)c1cc2cc(Cl)ccc2[nH]c1=O` [Compound I-94], the negative-log IC50 (pIC50) in experiment [1] (setting [5]) was 5.00 to 6.00; in experiment [2] it was 6.00 to 7.00; in experiment [3], 6.00 to 7.00; in experiment [4] (setting [6]) it was > 7.00.

For the compound `C[C@H](Nc1nccc(-c2ccncc2)n1)c1cc2cc(Cl)ccc2[nH]c1=O` [Compound I-95], the negative logarithm of the IC50 (pIC50) in experiment [1] (setting [5]) was 5.00 to 6.00; in experiment [2], 6.00 to 7.00; in experiment [3], 6.00 to 7.00; in experiment [4] (setting [6]) it was 6.00 to 7.00.

With `Cc1cnccc1-c1ccnc(N[C@@H](C)c2cc3cc(Cl)ccc3[nH]c2=O)n1` [Compound I-96], the pIC50 is 6.00 to 7.00 in experiment [1] (setting [5]), > 7.00 in experiment [2], 6.00 to 7.00 in experiment [3] and > 7.00 in experiment [4] (setting [6]).

On to `C[C@H](Nc1nccc(-c2ccccc2)n1)c1cc2cc(Cl)ccc2[nH]c1=O` [Compound I-101], for which the pIC50 in experiment [1] (setting [5]) was 6.00 to 7.00; in experiment [2], > 7.00; in experiment [3], 6.00 to 7.00; in experiment [4] (setting [6]) it was 6.00 to 7.00.

The record behind these values is patent US10280150B2 (FORMA TM2, Inc., priority 2014, dated 2019).
